Patent US20130281467A1, “NOVEL MICROBICIDES” (SYNGENTA PARTICIPATIONS AG, priority 2010, published 2013)

Assays:
[1] = system: Mycosphaerella arachidis (Cercospora arachidicola); assay: Fungicidal activity against Mycosphaerella arachidis (Cercospora arachidicola) / liquid culture (early leaf spot); format: cell-based; conditions: 4-5 days after application, read-out: disease control (inhibition of growth, photometrically)
Method: (§1) Fungicidal Activity Against Mycosphaerella arachidis (Cercospora arachidicola)/Liquid Culture (Early Leaf Spot) Conidia of the fungus from cryogenic storage were directly mixed into nutrient broth (PDB potato dextrose broth). After placing a (DMSO) solution of test compound into a microtiter plate (96-well format), the nutrient broth containing the fungal spores was added. The test plates were incubated at 24° C. and the inhibition of growth was determined photometrically 4-5 days after application.

[2] = system: Botryotinia fuckeliana (Botrytis cinerea); assay: Fungicidal activity against Botryotinia fuckeliana (Botrytis cinerea) / liquid culture (gray mould); format: cell-based; conditions: 3-4 days after application, read-out: disease control (inhibition of growth, photometrically)
Method: as §1, with “Botryotinia fuckeliana (Botrytis cinerea)/Liquid” for “Mycosphaerella arachidis (Cercospora arachidicola)/Liquid”, “(Gray Mould)” for “(Early Leaf Spot)”, “(Vogels” for “(PDB potato dextrose”, “3-4” for “4-5”

[3] = system: Glomerella lagenarium (Colletotrichum lagenarium); assay: Fungicidal activity against Glomerella lagenarium (Colletotrichum lagenarium) / liquid culture (anthracnose); format: cell-based; conditions: Colletotrichum orbiculare, 3-4 days after application, read-out: disease control (inhibition of growth, photometrically)
Method: as §1, with “Glomerella lagenarium (Colletotrichum lagenarium)/Liquid” for “Mycosphaerella arachidis (Cercospora arachidicola)/Liquid”, “(Anthracnose)” for “(Early Leaf Spot)”, “measured” for “determined”, “3-4” for “4-5”

[4] = system: Monographella nivalis (Microdochium nivale); assay: Fungicidal activity against Monographella nivalis (Microdochium nivale) / liquid culture (foot rot cereals); format: cell-based; conditions: 4-5 days after application, read-out: disease control (inhibition of growth, photometrically)
Method: as §1, with “Monographella nivalis (Microdochium nivale)/Liquid” for “Mycosphaerella arachidis (Cercospora arachidicola)/Liquid”, “(Foot Rot Cereals)” for “(Early Leaf Spot)”

[5] = system: Mycosphaerella graminicola (Septoria tritici); assay: Fungicidal activity against Mycosphaerella graminicola (Septoria tritici) / liquid culture (Septoria blotch); format: cell-based; conditions: Zymoseptoria tritici, 4-5 days after application, read-out: disease control (inhibition of growth, photometrically)
Method: as §1, with “graminicola (Septoria tritici)/Liquid” for “arachidis (Cercospora arachidicola)/Liquid”, “(Septoria Blotch)” for “(Early Leaf Spot)”

Gaeumannomyces graminis = assay: Fungicidal activity against Gaeumannomyces graminis / liquid culture (take-all of cereals); format: cell-based; conditions: 4-5 days after application, read-out: disease control (inhibition of growth, photometrically)
Method: as §1, with “Against Gaeumannomyces graminis/Liquid” for “Against Mycosphaerella arachidis (Cercospora arachidicola)/Liquid”, “Culture (Take-all of Cereals) Mycelial fragments” for “Culture (Early Leaf Spot) Conidia”, “spores iss” for “spores was”

[6] = system: Thanatephorus cucumeris (Rhizoctonia solani); assay: Fungicidal activity against Thanatephorus cucumeris (Rhizoctonia solani) / liquid culture (foot rot, damping-off); format: cell-based; conditions: 3-4 days after application, read-out: disease control (inhibition of growth, photometrically)
Method: Fungicidal Activity Against Thanatephorus cucumeris (Rhizoctonia solani)/Liquid Culture (Foot Rot, Damping-Off) Mycelia fragments of a newly grown liquid culture of the fungus were directly mixed into nutrient broth (PDB potato dextrose broth). After placing a (DMSO) solution of the test compounds into a microtiter plate (96-well format), the nutrient broth containing the fungal material was added. The test plates were incubated at 24° C. and the inhibition of growth was determined photometrically 3-4 days after application.

[7] = system: Puccinia recondita f. sp. tritici; assay: Fungicidal activity against Puccinia recondita f. sp. tritici / wheat / leaf disc preventative (brown rust); format: in vivo; conditions: foliar, wheat leaf segments, inoculated 1 day after application, compared to untreated, read-out: disease control
Method: Fungicidal Activity Against Puccinia recondita f. sp. tritici/Wheat/Leaf Disc Preventative (Brown Rust) Wheat leaf segments cv. Kanzler were placed on agar in multiwell plates (24-well format) and sprayed with the formulated test compound diluted in water. The leaf disks were inoculated with a spore suspension of the fungus 1 day after application. The inoculated leaf segments were incubated at 19° C. and 75% rh under a light regime of 12 h light/12 h darkness in a climate cabinet and the activity of a compound was assessed as percent disease control compared to untreated when an appropriate level of disease damage appears in untreated check leaf segments (7-9 days after application).

[8] = system: Phaeosphaeria nodorum (Septoria nodorum); assay: Fungicidal activity against Phaeosphaeria nodorum (Septoria nodorum) / wheat / leaf disc preventative (glume blotch); format: in vivo; conditions: Parastagonospora nodorum, foliar, wheat leaf segments, inoculated 2 days after application, compared to untreated, read-out: disease control
Method: Fungicidal Activity Against Phaeosphaeria nodorum (Septoria nodorum)/Wheat/Leaf Disc Preventative (Glume Blotch) Wheat leaf segments cv. Kanzler were placed on agar in a multiwell plate (24-well format) and sprayed with the formulated test compound diluted in water. The leaf disks were inoculated with a spore suspension of the fungus 2 days after application. The inoculated test leaf disks were incubated at 20° C. and 75% rh under a light regime of 12 h light/12 h darkness in a climate cabinet and the activity of a compound was assessed as percent disease control compared to untreated when an appropriate level of disease damage appears in untreated check leaf disks (5-7 days after application).

[9] = system: Blumeria graminis f. Sp. tritici (Erysiphe graminis f. sp. tritici); assay: Fungicidal activity against Blumeria graminis f. sp. tritici / wheat / leaf disc preventative (powdery mildew on wheat); format: in vivo; conditions: foliar, wheat leaf segments, inoculated 1 day after application, compared to untreated, read-out: disease control
Method: Fungicidal Activity Against Blumeria graminis f. Sp. tritici (Erysiphe graminis f. sp. tritici)/Wheat/Leaf Disc Preventative (Powdery Mildew on Wheat)
Wheat leaf segments cv. Kanzler were placed on agar in a multiwell plate (24-well format) and sprayed with the formulated test compound diluted in water. The leaf disks were inoculated by shaking powdery mildew infected plants above the test plates 1 day after application. The inoculated leaf disks were incubated at 20° C. and 60% rh under a light regime of 24 h darkness followed by 12 h light/12 h darkness in a climate chamber and the activity of a compound was assessed as percent disease control compared to untreated when an appropriate level of disease damage appears on untreated check leaf segments (6-8 days after application).

Pyrenophora teres = assay: Fungicidal activity against Pyrenophora teres / barley / leaf disc preventative (net blotch); format: in vivo; conditions: foliar, barley leaf segments, inoculated 2 days after application, compared to untreated, read-out: disease control
Method: Fungicidal Activity Against Pyrenophora teres/Barley/Leaf Disc Preventative (Net Blotch) Barley leaf segments cv. Hasso were placed on agar in a multiwell plate (24-well format) and sprayed with the formulated test compound diluted in water. The leaf segments were inoculated with a spore suspension of the fungus 2 days after application. The inoculated leaf segments were incubated at 20° C. and 65% rh under a light regime of 12 h light/12 h darkness in a climate cabinet and the activity of a compound was assessed as disease control compared to untreated when an appropriate level of disease damage appears in untreated check leaf segments (5-7 days after application).

CO/N=C1\CC(C)(C)Cc2nc(-c3cccc(Cc4ccccc4)n3)ncc21 [Compound 23]
≥ 80%: inhibition at 200 ppm [1] | inhibition at 200 ppm [2] | inhibition at 200 ppm [3] | inhibition at 200 ppm [4] | inhibition at 200 ppm [5] | inhibition at 200 ppm (Gaeumannomyces graminis)

CO/N=C1\CCCc2nc(-c3cccc(Cc4ccccc4Cl)n3)ncc21 [Compound 24]
≥ 80%: inhibition at 200 ppm [6] | inhibition at 200 ppm [1] | inhibition at 200 ppm [2] | inhibition at 200 ppm [3] | inhibition at 200 ppm [4] | pest or weed control at 200 ppm [7] | inhibition at 200 ppm [5] | inhibition at 200 ppm (Gaeumannomyces graminis) | pest or weed control at 200 ppm [8]

c1ccc(Cc2cccc(-c3ncc4c(n3)C3CCC4C3)n2)cc1 (stereo not shown) [Compound 26]
≥ 80%: inhibition at 200 ppm [6] | inhibition at 200 ppm [1] | inhibition at 200 ppm [2] | inhibition at 200 ppm [3] | pest or weed control at 200 ppm [9] | inhibition at 200 ppm [4] | pest or weed control at 200 ppm [7] | inhibition at 200 ppm [5] | inhibition at 200 ppm (Gaeumannomyces graminis) | pest or weed control at 200 ppm (Pyrenophora teres) | pest or weed control at 200 ppm [8]

CO/N=C1\CCCc2nc(-c3cccc(Cc4ccccc4OC)n3)ncc21 [Compound 27]
≥ 80%: inhibition at 200 ppm [1] | inhibition at 200 ppm [2] | inhibition at 200 ppm [3] | pest or weed control at 200 ppm [9] | inhibition at 200 ppm [4] | pest or weed control at 200 ppm [7] | inhibition at 200 ppm [5] | inhibition at 200 ppm (Gaeumannomyces graminis) | pest or weed control at 200 ppm (Pyrenophora teres) | pest or weed control at 200 ppm [8]

Clc1ccccc1Cc1cccc(-c2ncc3c(n2)OCCO3)n1 [Compound 28]
≥ 80%: inhibition at 200 ppm [6] | inhibition at 200 ppm [1] | inhibition at 200 ppm [2] | inhibition at 200 ppm [3] | pest or weed control at 200 ppm [9] | inhibition at 200 ppm [4] | pest or weed control at 200 ppm [7] | inhibition at 200 ppm [5] | inhibition at 200 ppm (Gaeumannomyces graminis) | pest or weed control at 200 ppm (Pyrenophora teres) | pest or weed control at 200 ppm [8]

c1ccc(Cc2cccc(-c3ncc4c(n3)CCCCC4)n2)cc1 [Compound 29, 2-(6-Benzyl-pyridin-2-yl)-6,7,8,9-tetrahydro-5H-cycloheptapyrimidine]
≥ 80%: inhibition at 200 ppm [6] | inhibition at 200 ppm [1] | inhibition at 200 ppm [2] | inhibition at 200 ppm [3] | pest or weed control at 200 ppm [9] | inhibition at 200 ppm [4] | pest or weed control at 200 ppm [7] | inhibition at 200 ppm [5] | inhibition at 200 ppm (Gaeumannomyces graminis) | pest or weed control at 200 ppm (Pyrenophora teres) | pest or weed control at 200 ppm [8]

Cc1ccc(Cc2cccc(-c3ncc4c(n3)CCCCC4)n2)cc1 [Compound 30]
≥ 80%: inhibition at 200 ppm [6] | inhibition at 200 ppm [1] | inhibition at 200 ppm [2] | inhibition at 200 ppm [3] | pest or weed control at 200 ppm [9] | inhibition at 200 ppm [4] | pest or weed control at 200 ppm [7] | inhibition at 200 ppm [5] | inhibition at 200 ppm (Gaeumannomyces graminis) | pest or weed control at 200 ppm (Pyrenophora teres) | pest or weed control at 200 ppm [8]

Cc1cccc(Cc2cccc(-c3ncc4c(n3)CCCCC4)n2)c1 [Compound 31]
≥ 80%: inhibition at 200 ppm [6] | inhibition at 200 ppm [1] | inhibition at 200 ppm [3] | pest or weed control at 200 ppm [9] | pest or weed control at 200 ppm [7] | inhibition at 200 ppm [5] | inhibition at 200 ppm (Gaeumannomyces graminis) | pest or weed control at 200 ppm (Pyrenophora teres) | pest or weed control at 200 ppm [8]

Cc1ccccc1Cc1cccc(-c2ncc3c(n2)CCCCC3)n1 [Compound 32]
≥ 80%: inhibition at 200 ppm [6] | inhibition at 200 ppm [1] | inhibition at 200 ppm [2] | inhibition at 200 ppm [3] | pest or weed control at 200 ppm [9] | inhibition at 200 ppm [4] | pest or weed control at 200 ppm [7] | inhibition at 200 ppm [5] | inhibition at 200 ppm (Gaeumannomyces graminis) | pest or weed control at 200 ppm (Pyrenophora teres) | pest or weed control at 200 ppm [8]

COc1ccccc1Cc1cccc(-c2ncc3c(n2)CCCCC3)n1 [Compound 34]
≥ 80%: inhibition at 200 ppm [6] | inhibition at 200 ppm [1] | inhibition at 200 ppm [2] | inhibition at 200 ppm [3] | pest or weed control at 200 ppm [9] | inhibition at 200 ppm [4] | pest or weed control at 200 ppm [7] | inhibition at 200 ppm [5] | inhibition at 200 ppm (Gaeumannomyces graminis) | pest or weed control at 200 ppm (Pyrenophora teres) | pest or weed control at 200 ppm [8]

Cc1ccc(Cc2cccc(-c3ncc4c(n3)CC(C)(C)CC4)n2)cc1 [Compound 36]
≥ 80%: inhibition at 200 ppm [6] | inhibition at 200 ppm [1] | inhibition at 200 ppm [2] | inhibition at 200 ppm [3] | pest or weed control at 200 ppm [9] | inhibition at 200 ppm [4] | inhibition at 200 ppm [5] | inhibition at 200 ppm (Gaeumannomyces graminis) | pest or weed control at 200 ppm (Pyrenophora teres) | pest or weed control at 200 ppm [8]

COc1ccc(Cc2cccc(-c3ncc4c(n3)CCCCC4)n2)cn1 [Compound 39, 2-[6-(6-Methoxy-pyridin-3-ylmethyl)-pyridin-2-yl]-6,7,8,9-tetrahydro-5H-cycloheptapyrimidine]
≥ 80%: inhibition at 200 ppm [1] | inhibition at 200 ppm [3] | pest or weed control at 200 ppm [9] | pest or weed control at 200 ppm [7] | inhibition at 200 ppm [5] | inhibition at 200 ppm (Gaeumannomyces graminis) | pest or weed control at 200 ppm (Pyrenophora teres) | pest or weed control at 200 ppm [8]

COc1ccc(C(C)c2cccc(-c3ncc4c(n3)CC(C)(C)CC4)n2)cn1 (stereo not shown) [Compound 43]
≥ 80%: inhibition at 200 ppm [1] | inhibition at 200 ppm [2] | inhibition at 200 ppm [3] | pest or weed control at 200 ppm [9] | inhibition at 200 ppm [4] | inhibition at 200 ppm [5] | inhibition at 200 ppm (Gaeumannomyces graminis) | pest or weed control at 200 ppm (Pyrenophora teres) | pest or weed control at 200 ppm [8]
